Source: patent US8153787B2 (priority 2005, dated 2012)
≈ marks a conversion by molar mass, not a printed value. Like-named read-outs stand apart in the source and are kept apart here.

Columns and labels:
HSV-2 (Lyons) = test system: HSV-2 (Lyons); set-up: species or system mice; settings: mouse, in vivo, sc
HEL cells = settings: human
in vitro = settings: human
[1] = test system: Molluscum contagiosum virus (MCV) clinical isolates; assay: microbe, parasite or virus in culture; format: cell-based; settings: Keratinocyte
Orf virus (NZ2) [2] = assay: microbe, parasite or virus in culture; format: cell-based
HSV-1 (KOS) = test system: HSV-1 (KOS); set-up: species or system mice; settings: mouse, in vivo, sc
Vaccinia Virus (WR) = format: in vivo, mice; settings: after 20 days
[3] = test system: Vaccinia virus (Lederle, Lister, W R and Copenhagen); format: cell-based
MOLT-3 cells = settings: human
[4] = test system: herpes simplex virus type 2 (HSV-2); assay: microbe, parasite or virus in culture; format: cell-based; settings: Human alphaherpesvirus 2, HEL, read-out: EC50 HSV-2 (G strain)
murine polyomavirus = assay: microbe, parasite or virus in culture; format: cell-based; settings: Alphapolyomavirus muris, UC1, UC1B
HSV-1 (Kos strain) = assay: microbe, parasite or virus in culture; format: cell-based, Herpes simplex virus type 1; settings: Human alphaherpesvirus 1, HEL
[5] = test system: vaccinia virus (Lederle strain); assay: microbe, parasite or virus in culture; format: cell-based; settings: Orthopoxvirus vaccinia, HEL
[6] = test system: Varicella-Zoster Virus (VZV); assay: microbe, parasite or virus in culture; format: cell-based; settings: for EC50: Human alphaherpesvirus 3, HEL
pox tail lesions = assay: Pox tail lesion model; format: in vivo
[7] = test system: primate polyomavirus (SV40); assay: microbe, parasite or virus in culture; format: cell-based, simian polyomavirus SV40; settings: Polyomavirus sp., BSC-1, in Primates
[8] = mouse, in vivo
Cowpox virus (Brighton) [9] = test system: Cowpox virus (Brighton); set-up: species or system mice; settings: mouse, in vivo, sc
[10] = Decomposition in aqueous solution (sym-triazine ring opening); format: physicochemical; settings: in words
Description: The first step is a reversible opening of the sym-triazine ring to the N-formylguanidine derivative which can close back to the cyclic structure. This step occurs in presence of a trialkylammonium buffer, e.g. triethylammonium hydrogenocarbonate (TEAB), triethylammonium hydroxide or triethylammonium acetate. This hydrolytic reaction is slow and reaches equilibrium within several days. It is accompanied by loss of UV-absorption which allows to determine its course.
Though this reaction is generally controlled by acidobasic catalysis, it could be eventually speeded up (or slowed down) in vivo by the action of enzymes.
The reaction course was monitored by measurement of absorption maximum decrease in UV spectrum at λmax 245 nm. For each measurement 10 μl sample of reaction mixture was diluted with water to overall volume 3 ml and absorbance value at 245 nm determined. Equilibrium was reached when no more decrease of absorbance occurred. The reaction mixture was evaporated to dryness, coevaporated with water (5×3 ml) and then with methanol (2×3 ml). The residue in water (3 ml) was applied onto a column of Dowex 50 (Na^+ form, 20 ml) and the column eluted with water. UV absorbing eluate was evaporated and lyophilized to give 105 mg (92%) of a sodium salt of 3a as a colourless amorphous material.

Cowpox virus (Brighton) [11] = format: cell-based
Orf virus (NZ2) [12] = format: cell-based
[13] = test system: Human Cytomegalovirus (HCMV); assay: microbe, parasite or virus in culture; format: cell-based
HSB-2 cells = settings: human
[14] = test system: herpes simplex virus type 1 (HSV-1); assay: microbe, parasite or virus in culture; format: cell-based; settings: Human alphaherpesvirus 1, HEL, read-out: EC50 HSV-1 (Kos strain)

## Nc1ncn(C[C@@H](CO)OCP(=O)(O)O)c(=O)n1 [Compound 3, (S)-1-[3-hydroxy-2-(Phosphonomethoxy)propyl]-5-azacytosine]
HSV-2 (Lyons)
  survival rate, HSV-2 (Lyons) model: 100%
HEL cells
  Toxicity MCC (microscop): >100 µg/mL
In vitro
  CC50: > 100 µg/mL
[1]; read-out: EC50 MCV 06/02
  EC50: 0.4 µg/mL (≈ 1.43 µM)
[1]; read-out: EC50 MCV 06/03
  EC50: 0.23 µg/mL (≈ 0.821 µM)
[1]; read-out: EC50 MCV 06/04
  EC50: 0.4 µg/mL (≈ 1.43 µM)
[1]; read-out: EC50 MCV 06/06
  EC50: 1.26 µg/mL (≈ 4.5 µM)
Orf virus (NZ2) [2]
  activity against Orf virus (NZ2) in HEL cells: significant activity
Orf virus (NZ2) [2]; Orf virus, HEL, read-out: EC50 Orf virus NZ2
  EC50: 0.15 µg/mL (≈ 0.535 µM)
HSV-1 (KOS)
  survival rate, HSV-1 (KOS) mice: 100%
Vaccinia Virus (WR)
  survival, Vaccinia Virus (WR) mice model: 100%
[3]
  activity against Vaccinia virus (Lederle, Lister, W R and Copenhagen) in PHKs: significant activity
MOLT-3 cells
  Toxicity MCC (microscopy), MOLT-3 cells: 16 µg/mL
[4]
  EC50: 0.54 µg/mL (≈ 1.93 µM)
Murine polyomavirus; read-out: antiviral activity (EC50) 2PTA2
  EC50: 3.35 µg/mL (≈ 12 µM)
Murine polyomavirus; read-out: antiviral activity (EC50) LID-1
  EC50: 4.98 µg/mL (≈ 17.8 µM)
Murine polyomavirus; read-out: antiviral activity (EC50) MN/RDE Toronto
  EC50: 1.94 µg/mL (≈ 6.92 µM)
Murine polyomavirus; read-out: antiviral activity (EC50) PTA
  EC50: 3.89 µg/mL (≈ 13.9 µM)
HSV-1 (Kos strain); 2 h, read-out: EC50 HSV-1 (Kos strain), Treatment from 2 h till end of experiment
  EC50: 0.16 µg/mL (≈ 0.571 µM)
HSV-1 (Kos strain); read-out: EC50 HSV-1 (Kos strain), Pretreatment (−16 hours)
  EC50: 0.25 µg/mL (≈ 0.892 µM)
HSV-1 (Kos strain); read-out: EC50 HSV-1 (Kos strain), Treatment 2-4 hours
  EC50: 1 µg/mL (≈ 3.57 µM)
HSV-1 (Kos strain); read-out: EC50 HSV-1 (Kos strain), Treatment 2-6 hours
  EC50: 0.37 µg/mL (≈ 1.32 µM)
HSV-1 (Kos strain); read-out: EC50 HSV-1 (Kos strain), Treatment 2-8 hours
  EC50: 0.32 µg/mL (≈ 1.14 µM)
[5]; 2 h, read-out: EC50 Vaccinia (Lederle strain), Treatment from 2 h till end of experiment
  EC50: 2 µg/mL (≈ 7.14 µM)
[5]; read-out: EC50 Vaccinia (Lederle strain), Pretreatment (−16 hours)
  EC50: 1.59 µg/mL (≈ 5.67 µM)
[5]; read-out: EC50 Vaccinia (Lederle strain), Treatment 2-4 hours
  EC50: 5 µg/mL (≈ 17.8 µM)
[5]; read-out: EC50 Vaccinia (Lederle strain), Treatment 2-6 hours
  EC50: 3.98 µg/mL (≈ 14.2 µM)
[5]; read-out: EC50 Vaccinia (Lederle strain), Treatment 2-8 hours
  EC50: 6.3 µg/mL (≈ 22.5 µM)
[6]
  activity against VZV (Oka, YS, YS-R and 07-1) in HEL cells: significant activity
[6]; read-out: EC50 VZV 07/1 strain (HEL cells)
  EC50: 0.019 µg/mL (≈ 0.0678 µM)
[6]; read-out: EC50 VZV OKA strain (HEL cells)
  EC50: 0.027 µg/mL (≈ 0.0964 µM)
[6]; read-out: EC50 VZV YS strain (HEL cells)
  EC50: 0.039 µg/mL (≈ 0.139 µM)
[6]; read-out: EC50 VZV YS-R strain (HEL cells)
  EC50: 0.015 µg/mL (≈ 0.0535 µM)
Pox tail lesions
  number of lesions on day 7: 0
[7]; read-out: antiviral activity (EC50) SV40 PML-1 strain EK
  EC50: 3.19 µg/mL (≈ 11.4 µM)
[7]; read-out: antiviral activity (EC50) SV40 PML-2 strain DAR
  EC50: 3.81 µg/mL (≈ 13.6 µM)
[7]; read-out: antiviral activity (EC50) SV40 strain A2895
  EC50: 3.22 µg/mL (≈ 11.5 µM)
[8]
  mean body weights of the mice: normal pattern
Cowpox virus (Brighton) [9]
  survival, Cowpox virus (Brighton) mice model: 100%
[10]
  decomposition in aqueous solution: slow decomposition
Cowpox virus (Brighton) [11]
  activity against Cowpox virus (Brighton) in PHKs: significant activity
Orf virus (NZ2) [12]
  activity against Orf virus (NZ2) in PHKs: significant activity
[13]
  activity against CMV (AD-169 and Davis) in HEL cells: significant activity
[13]; Human betaherpesvirus 5, AD169, HEL, read-out: EC50 HCMV AD-169 strain (HEL cells)
  EC50: 0.078 µg/mL (≈ 0.278 µM)
[13]; Human betaherpesvirus 5, HEL, read-out: EC50 HCMV Davis strain (HEL cells)
  EC50: 0.054 µg/mL (≈ 0.193 µM)
HSB-2 cells
  Toxicity MCC (microscopy), HSB-2 cells: 16 µg/mL
[14]
  EC50: 0.61 µg/mL (≈ 2.18 µM)
